Bounds are passed on as bounds.

The test has as its target Adenosine receptor A3 (Bos taurus). Put plainly: Displacement of [125I]AB-MECA from Adenosine A3 receptor in bovine cortical membranes in the presence of 20 nM DPCPX.
For `CCC(=O)CNc1nc(-c2ccccc2)nc2nc(C)cn12` [1-(7-Methyl-2-phenyl-imidazo[1,2-a][1,3,5]triazin-4-ylamino)-butan-2-one], the Ki was greater than 10 µM.

On to `CC(=O)CNc1nc(-c2ccccc2)nc2nc(C)cn12` [1-(7-Methyl-2-phenyl-imidazo[1,2-a][1,3,5]triazin-4-ylamino)-propan-2-one], for which the Ki is greater than 10 µM.

Take `O=C(Nc1nc(-c2ccccc2)nc2nc(-c3ccccc3)cn12)C1CCCC1` [Cyclopentanecarboxylic acid (2,7-diphenyl-imidazo[1,2-a][1,3,5]triazin-4-yl)-amide]: the Ki was found to be 1.24 µM.

`CC(C)c1cn2c(NC(=O)C3CCCC3)nc(-c3ccccc3)nc2n1` [Cyclopentanecarboxylic acid (7-isopropyl-2-phenyl-imidazo[1,2-a][1,3,5]triazin-4-yl)-amide]: the Ki was found to be 0.0174 µM.

As for `Cc1cn2c(NC3CCCC3)nc(-c3ccccc3)nc2n1` [Cyclopentyl-(7-methyl-2-phenyl-imidazo[1,2-a][1,3,5]triazin-4-yl)-amine], the Ki came out at 2.25 µM.

Consider `CC(=O)Nc1nc(-c2ccccc2)nc2nc(-c3ccccc3)cn12` [N-(2,7-Diphenyl-imidazo[1,2-a][1,3,5]triazin-4-yl)-acetamide], for which the Ki is 0.04 µM.

Take `CC(=O)Nc1nc(-c2ccccc2)nc2nc(C)cn12` [N-(7-Methyl-2-phenyl-imidazo[1,2-a][1,3,5]triazin-4-yl)-acetamide]: the Ki is 0.231 µM.

The Ki is the equilibrium dissociation constant of an inhibitor or competing ligand from its target.

(Values after BindingDB's records for doi:10.1021/jm020911e (Universit&#224, 2002).)
